Laboratory results from patent publication US20230233425A1, “USE OF VOLATILE COMPOSITIONS TO LIMIT OR ELIMINATE THE PERCEPTION OF MALODOR” (Firmenich SA, priority 2017, published 2023).
Counter-ions that a name gives are not always drawn. Like-named read-outs stand apart in the source and are kept apart here.

Key:
[1] = biological target: T1, OR51E1 olfactory receptor (Homo sapiens, UniProt Q8TCB6); experiment: Butyric acid olfactory receptor antagonist cell-based dose-response vs butyric acid EC80; settings: for Emax: read-out: Inhibition (%)
T1 construct: expressed in transfected cells
T1 sequence (Q8TCB6 1-318): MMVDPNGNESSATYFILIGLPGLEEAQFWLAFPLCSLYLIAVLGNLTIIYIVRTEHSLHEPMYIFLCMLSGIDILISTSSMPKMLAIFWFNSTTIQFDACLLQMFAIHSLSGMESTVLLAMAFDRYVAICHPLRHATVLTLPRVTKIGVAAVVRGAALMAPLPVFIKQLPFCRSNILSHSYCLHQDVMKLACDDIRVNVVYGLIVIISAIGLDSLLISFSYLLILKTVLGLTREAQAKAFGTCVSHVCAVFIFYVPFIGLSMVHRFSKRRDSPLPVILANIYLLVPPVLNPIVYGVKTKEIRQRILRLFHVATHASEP

[2] = test system: geonol receptors Olfr339, Olfr1487, Olfr1A1, OR11A1, Olfr96; experiment: Antagonists of geonol receptors (Example 11); format: cell-based, mouse and human; set-up: Inhibition(%): concentration or dose not given beside the values; settings: Table 18

## CC(=O)OC(C)C1CC(C)C23CCC(CC12)C3 (stereo not shown)
[1]; Table 21
  IC50: 97 µM
  Inhibition(%): 23%

## CC(=O)OC(C)C1(C)CC(C)C23CCC(CC12)C3 (stereo not shown)
[1]; Table 21
  IC50: 54.8 µM
  Inhibition(%): 34%

## CC(=O)C1(C)CC(C)C23CCC(CC12)C3 (stereo not shown)
[1]; Table 21
  IC50: 60.5 µM
  Inhibition(%): 26%

## CC(=O)[C@@]1(C)C(C)[C@H](C)[C@@]23CC[C@H](CC12)C3 (stereo partly shown)
[1]; Table 21
  Inhibition(%): 27%

## CC1C(C)C23CCC(CC2C1(C)C=O)C3 (stereo not shown)
[1]; Table 21
  IC50: 270 µM
  Inhibition(%): 28%

## CC1=CCC(C=CC(C)C(C)O)C1(C)C (stereo not shown)
[2]
  IC50: 76 µM
  Inhibition(%): 33%

## CC1=CCC2C(C1)C1CC2C2(C1)OC2C (stereo not shown)
[2]
  IC50: 281 µM
  Inhibition(%): 45%

## CC1(CO)CC1CC1CC2CC2(C)C1(C)C (stereo not shown)
[2]
  IC50: 21.3 µM
  Inhibition(%): 34%

## CC(=O)OCC1(C)C(C)C(C)C23CCC(CC12)C3 (stereo not shown)
[1]; Table 21
  IC50: 60.8 µM
  Inhibition(%): 27%

## CCC1=CCCC(C)(C)[C@@]12C=C[C@@H](C)O2
[2]
  IC50: 127 µM
  Inhibition(%): 47%

## C[C@H]1CCC[C@]2(CCCC[C@@H]2C)[C@@H]1O
[1]; Table 20, spiro analogues
  IC50: 76.9 µM
  Emax: 54%

## CC1CCC2(O1)C(C)(C)CCCC2(C)O (stereo not shown)
[2]
  IC50: 173 µM
  Inhibition(%): 40%

## CC(=O)/C(C)=C/C1C(C)=CCCC1(C)C (stereo not shown)
[2]
  IC50: 1120 µM
  Inhibition(%): 58%

## CC(=O)OC1CC2CCC1(C)C2(C)C (stereo not shown)
[2]
  IC50: 660 µM
  Inhibition(%): 84%

## CC(=NO)C1(C)C(C)C(C)[C@]23CC[C@H](CC12)C3 (stereo partly shown)
[1]; Table 21
  Inhibition(%): 81%

## CC(=NO)C1C(C)C(C)C23CCC(CC12)C3 (stereo not shown)
[1]; Table 21
  IC50: 76.6 µM
  Emax: 19%

## CC1CC(C)(C=NO)C2C[C@H]3CC[C@]12C3 (stereo partly shown)
[1]; Table 21
  Inhibition(%): 38%

## 2,4,8-trimethylspiro[5.5]undec-3-en-11-ol; 2,9,11-trimethylspiro[5.5]undec-9-en-5-ol
[1]; Table 20, spiro analogues
  IC50: 117 µM
  Inhibition(%): 70%

## 3,10,10-trimethylspiro[5.5]undec-3-en-11-ol; 4,10,10-trimethylspiro[5.5]undec-3-en-11-ol
[1]; Table 20, spiro analogues
  IC50: > 600 µM
  Inhibition(%): 121%

## 4,10,10,11-tetramethylspiro[5.5]undec-2-en-11-ol; 5,10,10,11-tetramethylspiro[5.5]undec-3-en-11-ol
[1]; Table 20, spiro analogues
  IC50: 47.2 µM
  Inhibition(%): 94%

## CC(=O)OC(C1CCCCC1C)C(C)(C)C (racemic) [(1RS)-2,2-dimethyl-1-[(1SR,2SR)-2-methylcyclohexyl]propyl acetate]
[1]; Table 20, spiro analogues
  Inhibition(%): 86%

## C=C1C(C)(C)CCCC12CC1(C)OC1(C)C2 (stereo not shown) [1,1′,1′,5-tetramethyl-2′-methylidenespiro[6-oxabicyclo[3.1.0]hexane-3,3′-cyclohexane]]
[1]; Table 20, spiro analogues
  IC50: 75.7 µM
  Emax: 37%

## CC=CC(=O)C1=C(C)C=CCC1(C)C [1-(2,6,6-trimethylcyclohexa-1,3-dien-1-yl)but-2-en-1-one]
[2]
  IC50: 129 µM
  Inhibition(%): 35%

## CC1C=CCC(C)C1C(O)C(C)(C)C (stereo not shown) [1-(2,6-dimethylcyclohex-3-en-1-yl)-2,2-dimethylpropan-1-ol]
[1]; Table 20, spiro analogues
  IC50: 321 µM
  Emax: 31%

## C=CCC1(OC)C(C)CCCC1C (stereo not shown) [1-methoxy-2,6-dimethyl-1-prop-2-enylcyclohexane]
[1]; Table 20, spiro analogues
  IC50: 100 µM
  Emax: 61%

## C=C1C2CCC(C2)C1(C)C (stereo not shown) [2,2-dimethyl-3-methylidenebicyclo[2.2.1]heptane]
[2]
  IC50: 219 µM
  Inhibition(%): 36%

## C=C(C)CC1(CC(=C)C)CCC(C)(C)C1O (stereo not shown) [2,2-dimethyl-5,5-bis(2-methylprop-2-enyl)cyclopentan-1-ol]
[1]; Table 20, spiro analogues
  IC50: 35.1 µM
  Emax: 119%

## C=C(C)CC1(CC(=C)C)CCC(C)(C)C1=O [2,2-dimethyl-5,5-bis(2-methylprop-2-enyl)cyclopentan-1-one]
[1]; Table 20, spiro analogues
  IC50: 51.7 µM
  Emax: 82%

## C=C(C)CC1(CC(=C)C)CCCC(C)(C)C1O (stereo not shown) [2,2-dimethyl-6,6-bis(2-methylprop-2-enyl)cyclohexan-1-ol]
[1]; Table 20, spiro analogues
  IC50: 125 µM
  Emax: 110%

## CC1=C(C)CC2(CCC(C)(C)C2=O)C1 [2,3,8,8-tetramethylspiro[4.4]non-2-en-9-one]
[1]; Table 20, spiro analogues
  IC50: 198 µM
  Emax: 10%

## CC1CC2(CCCC(C)(C)C2O)CC1C (stereo not shown) [2,3,9,9-tetramethylspiro[4.5]decan-10-ol]
[1]; Table 20, spiro analogues
  IC50: 120 µM
  Emax: 12%

## CC1=CC(C)C2(CCCC(C)(C)C2O)C1 (stereo not shown) [2,4,9,9-tetramethylspiro[4.5]dec-2-en-10-ol]
[1]; Table 20, spiro analogues
  IC50: 81.6 µM
  Emax: 22%

## CC1=CC(C)C2(CCCC(C)(C)C2=O)C1 (stereo not shown) [2,4,9,9-tetramethylspiro[4.5]dec-2-en-10-one]
[1]; Table 20, spiro analogues
  IC50: 110 µM
  Emax: 63%

## CCCOC(C)OCCc1ccccc1 (stereo not shown) [2-(1-propoxyethoxy)ethylbenzene]
[2]
  IC50: 190 µM
  Inhibition(%): 61%

## CC(C)CCOCCc1ccccc1 [2-(3-methylbutoxy)ethylbenzene]
[2]
  IC50: 126 µM
  Inhibition(%): 22%

## C=CCC1(C(C)C=C)CCCC(C)(C)C1=O (stereo not shown) [2-but-3-en-2-yl-6,6-dimethyl-2-prop-2-enylcyclohexan-1-one]
[1]; Table 20, spiro analogues
  IC50: 76.4 µM
  Emax: 115%

## CCC(=CCC1CC=C(C)C1(C)C)CO (stereo not shown) [2-ethyl-4-(2,2,3-trimethylcyclopent-3-en-1-yl)but-2-en-1-ol]
[2]
  IC50: 173 µM
  Inhibition(%): 35%

## CCC(=CCC1CC=C(C)C1(C)C)CO (stereo not shown) [2-ethyl-4-[1~{S})-2,2,3-trimethylcyclopent-3-en-1-yl]but-2-e]
[2]
  IC50: 44.6 µM
  Inhibition(%): 19%

## CC(C)COC(=O)Cc1ccccc1 [2-methylpropyl 2-phenylacetate]
[2]
  IC50: 141 µM
  Inhibition(%): 45%

## CC1C2CC(CC2C2CCCC(O)C2)C1(C)C (stereo not shown) [3-(5,5,6-trimethyl-2-bicyclo[2.2.1]heptanyl)cyclohexan-1-ol]
[2]
  IC50: 100 µM
  Inhibition(%): 29%

## CC1=CCC2(CCCCC2O)C(C(C)C)C1 (stereo not shown) [3-methyl-5-propan-2-ylspiro[5.5]undec-2-en-11-ol]
[1]; Table 20, spiro analogues
  IC50: 366 µM
  Emax: 144%

## CC1C=CCC12CCCC(C)(C)C2=O (stereo not shown) [4,9,9-trimethylspiro[4.5]dec-2-en-10-one]
[1]; Table 20, spiro analogues
  IC50: 268 µM
  Emax: 102%

## COC1C(C)(C)CCC12CCCC2 (stereo not shown) [4-methoxy-3,3-dimethylspiro[4.4]nonane]
[1]; Table 20, spiro analogues
  IC50: 337 µM
  Emax: 105%

## CC1(C)CCCC2(CC=CC2)C1O (stereo not shown) [9,9-dimethylspiro[4.5]dec-2-en-10-ol]
[1]; Table 20, spiro analogues
  IC50: 44.1 µM
  Emax: 91%

## CC1(C)CCCC2(CC=CC2)C1=O [9,9-dimethylspiro[4.5]dec-2-en-10-one]
[1]; Table 20, spiro analogues
  IC50: 135 µM
  Emax: 23%

## COC1C(C)(C)CCC12CC=CC2 (stereo not shown) [9-methoxy-8,8-dimethylspiro[4.4]non-2-ene]
[1]; Table 20, spiro analogues
  IC50: 238 µM
  Emax: 100%

## COC1C(C)(C)CCCC12CC=CC2 (stereo not shown) [10-methoxy-9,9-dimethylspiro[4.5]dec-2-ene]
[1]; Table 20, spiro analogues
  IC50: 120 µM
  Emax: 33%

## CC1CCCCC12CCCCC2O (stereo not shown) [11-methylspiro[5.5]undecan-5-ol]
[1]; Table 20, spiro analogues
  IC50: 68.8 µM
  Emax: 52%

## CC(=O)OC1C(C)(C)CCCC12CC(C)(C)C(C)(C)C2 (stereo not shown) [(2,2,3,3,9,9-hexamethylspiro[4.5]decan-10-yl) acetate]
[1]; Table 20, spiro analogues
  IC50: 425 µM
  Emax: 39%

## CC1=C(C)CC2(CCCC(C)(C)C2OC=O)C1 (stereo not shown) [(2,3,9,9-tetramethylspiro[4.5]dec-2-en-10-yl) formate]
[1]; Table 20, spiro analogues
  IC50: 25.9 µM
  Emax: 69%

## CC(=O)OC1C(C)(C)CCCC12CC(C)=CC2C (stereo not shown) [(2,4,9,9-tetramethylspiro[4.5]dec-2-en-10-yl) acetate]
[1]; Table 20, spiro analogues
  IC50: 34.8 µM
  Emax: 131%

## C/C=C/C(=O)C1=C(C)CCCC1(C)C [(2E)-1-(2,6,6-trimethyl-1-cyclohexen-1-yl)-2-buten-1-one]
[1]; butyric acid at EC80, Table 5
  IC50: 184 µM

## CC(=O)OC1C(C)(C)CCCC12CC=C(C)CC2C (stereo not shown) [(3,5,10,10-tetramethylspiro[5.5]undec-2-en-11-yl) acetate]
[1]; Table 20, spiro analogues
  IC50: 71.4 µM
  Emax: 104%

## CC(=O)OC1C(C)(C)CCCC12CC=CC2C (stereo not shown) [(4,9,9-trimethylspiro[4.5]dec-2-en-10-yl) acetate]
[1]; Table 20, spiro analogues
  IC50: 48.5 µM
  Emax: 106%

## CC1CC=CCC12CCCC(C)(C)C2OC=O (stereo not shown) [(5,10,10-trimethylspiro[5.5]undec-2-en-11-yl) formate]
[1]; Table 20, spiro analogues
  IC50: 44.4 µM
  Emax: 129%

## CC(=O)OC1C(C)(C)CCC12CC=CC2 (stereo not shown) [(8,8-dimethylspiro[4.4]non-2-en-9-yl) acetate]
[1]; Table 20, spiro analogues
  IC50: 488 µM
  Emax: 107%

## CC(=O)OC1C(C)(C)CCCC12CC=CC2 (stereo not shown) [(9,9-dimethylspiro[4.5]dec-2-en-10-yl) acetate]
[1]; Table 20, spiro analogues
  IC50: 90.3 µM
  Emax: 32%

## CCOCOC1CCCCCCCCCCC1 [(ethoxymethoxy)cyclododecane]
[1]; butyric acid at EC80, Table 5
  IC50: 69.2 µM

## C[C@@H]1CCCCCCCCCCCCC(=O)C1 [(−)-(3R)-3-methyl-1-cyclopentadecanone]
[1]; butyric acid at EC80, Table 5
  IC50: 27.3 µM

## COC1CCCCCCCCCCC1 [Methoxycyclododecane]
[1]; butyric acid at EC80, Table 5
  IC50: 84.1 µM

## CC(=O)OC(C1C(C)C=C(C)CC1C)C(C)(C)C (stereo not shown) [[2,2-dimethyl-1-(2,4,6-trimethylcyclohex-3-en-1-yl)propyl] acetate]
[1]; Table 20, spiro analogues
  IC50: 52.6 µM
  Emax: 89%

## CC(=O)OC(C1C(C)CC(C)CC1C)C(C)(C)C (stereo not shown) [[2,2-dimethyl-1-(2,4,6-trimethylcyclohexyl)propyl] acetate]
[1]; Table 20, spiro analogues
  IC50: 242 µM
  Emax: 101%

## methyl 1-(3-methylbut-2-enyl)cyclohex-2-ene-1-carboxylate, methyl 1-(3-methylbut-2-enyl)cyclohex-3-ene-1-carboxylate, or mixtures thereof
[1]; Table 20, spiro analogues
  IC50: 577 µM
  Inhibition(%): 38%
